{"source": "patent US10024865B2", "about": "“Ubiquitination assay” (ITI Scotland Limited, priority 2010, dated 2018)", "key": {"[1]": {"tested_on": "T1, SCF^Skp2/Cks1", "T1 construct": "6His-Skp2-(isoform 1, hu,FL), GST-Skp1-; (hu,FL), 6His-Cul1-(hu,FL), UT-Rbx1-; 6His-Cks1-(hu,FL); 6His (N); GST (N); made in house", "T1 sequence (Q13309 whole entry, canonical isoform)": "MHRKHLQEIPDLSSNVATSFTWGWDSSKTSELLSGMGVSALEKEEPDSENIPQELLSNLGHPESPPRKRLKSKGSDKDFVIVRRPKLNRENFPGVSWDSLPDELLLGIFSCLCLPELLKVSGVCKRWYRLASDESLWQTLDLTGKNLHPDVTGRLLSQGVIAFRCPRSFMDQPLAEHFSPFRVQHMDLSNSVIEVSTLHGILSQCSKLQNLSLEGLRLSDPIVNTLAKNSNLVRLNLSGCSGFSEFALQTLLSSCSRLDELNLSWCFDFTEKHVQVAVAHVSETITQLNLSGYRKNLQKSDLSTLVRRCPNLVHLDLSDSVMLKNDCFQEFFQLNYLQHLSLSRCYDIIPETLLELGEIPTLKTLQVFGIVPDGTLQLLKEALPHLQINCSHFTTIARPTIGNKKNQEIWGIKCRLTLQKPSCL", "T1 sequence (P63208 1-160 isoform P63208-2, further chain)": "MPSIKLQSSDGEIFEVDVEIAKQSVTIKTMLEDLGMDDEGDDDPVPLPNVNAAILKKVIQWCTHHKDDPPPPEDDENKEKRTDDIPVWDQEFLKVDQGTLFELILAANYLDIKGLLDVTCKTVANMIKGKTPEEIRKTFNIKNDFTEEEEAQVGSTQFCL", "T1 sequence (Q13616 whole entry, further chain, canonical isoform)": "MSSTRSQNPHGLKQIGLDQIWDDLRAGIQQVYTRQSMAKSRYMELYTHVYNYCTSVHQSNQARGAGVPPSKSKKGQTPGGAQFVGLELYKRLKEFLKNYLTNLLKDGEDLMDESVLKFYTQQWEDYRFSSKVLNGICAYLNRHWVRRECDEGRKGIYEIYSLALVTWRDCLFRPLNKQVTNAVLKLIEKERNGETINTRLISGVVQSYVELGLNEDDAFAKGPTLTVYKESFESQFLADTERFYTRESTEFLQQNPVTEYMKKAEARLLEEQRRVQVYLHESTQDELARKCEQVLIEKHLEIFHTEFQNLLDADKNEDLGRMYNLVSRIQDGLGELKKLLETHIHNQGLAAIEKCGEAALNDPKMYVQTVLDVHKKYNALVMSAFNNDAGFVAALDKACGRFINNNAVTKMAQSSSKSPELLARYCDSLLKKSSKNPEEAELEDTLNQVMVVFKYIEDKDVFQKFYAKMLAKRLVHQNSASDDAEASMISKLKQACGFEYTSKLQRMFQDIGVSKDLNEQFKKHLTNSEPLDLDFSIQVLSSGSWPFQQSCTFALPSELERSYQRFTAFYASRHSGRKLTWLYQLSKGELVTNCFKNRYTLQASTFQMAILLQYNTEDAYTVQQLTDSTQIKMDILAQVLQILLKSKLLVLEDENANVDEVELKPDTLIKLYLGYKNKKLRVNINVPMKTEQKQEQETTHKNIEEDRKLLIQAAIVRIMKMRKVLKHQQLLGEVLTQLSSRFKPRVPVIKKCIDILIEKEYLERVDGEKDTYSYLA", "T1 sequence (P62877 whole entry, further chain, canonical isoform)": "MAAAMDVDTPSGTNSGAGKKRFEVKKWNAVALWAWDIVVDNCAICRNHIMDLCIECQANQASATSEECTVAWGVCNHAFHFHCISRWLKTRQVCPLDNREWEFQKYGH", "T1 sequence (P61024 whole entry, further chain, canonical isoform)": "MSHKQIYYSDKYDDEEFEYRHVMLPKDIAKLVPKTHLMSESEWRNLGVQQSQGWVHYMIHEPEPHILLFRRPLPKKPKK", "assay": "'Live' SCF^Skp2/Cks1 assay (E3 assay, p27 ubiquitination), ECL", "type": "biochemical, human", "conditions": "for follow up IC50 (in words): titration from 300 μM to 10 nM", "description": "FIG. 23 (a): ‘Live’ SCF^Skp2/Cks1 Assay—ECL ubiquitin titration. Used 60 minute incubation; 25 nM c-Myc p27; anti c-Myc capture for p27 (Millipore 05-274, 1/500); 5 nM E1; 1 μM E2 (HA); 25 nM E3/Cks1; 5 to 0.08 μM Ub; 1000 to 15 μM ATP; streptavidin sulfo tag (MSD, R32AD-1, 1 μg/ml). Hyperbolic increase in signal with [Ub]. Optimum signal after 2 μM ubiquitin. Largely […] of ATP concentration. […] Final assay concentration is set at 2 μM.\nFIG. 23 (b): ‘Live’ SCF^Skp2/Cks1 Assay—ECL ATP titration. Used 60 minute incubation; 25 nM c-Myc p27; anti c-Myc capture for p27 (Millipore 05-274, 1/500); 5 nM E1; 1 μM E2 (HA); 25 nM E3/Cks1; 2 μM Ub; 1000 to 7 μM ATP; streptavidin sulfo tag (MSD, R32AD-1, 1 μg/ml). Initial experiments indicated a high signal which was independent of ATP concentration (lowest [ATP] of 21 μM)—indicative of tight binding. […] Km estimated at 4 μM. Final assay concentration set at 100 μM.\nFIG. 30 (a): ‘Live’ SCF^Skp2/Cks1 Assay—ECL Inhibitor study—PYR-41 (E1 inhibitor).\nFIG. 32: ‘Live’ SCF^Skp2/Cks1 Assay—ECL R140 Kinase inhibitor panel. Used 60 minute incubation; 25 nM c-Myc p27; anti-c-Myc capture for p27 (Millipore 05-274, 1/500); 5 nM E1; 1 μM E2 (HA); 25 nM E3 tetramer; 25 nM Cks1; 2 μM Ub; 100 μM ATP; streptavidin sulfo tag (MSD, R32AD-1, 1 μg/ml).\nFIG. 34: ‘Live’ SCF^Skp2/Cks1 Assay—ECL follow up IC50s. Used 60 minute incubation; 25 nM c-Myc p27; anti c-Myc capture for p27 (Millipore 05-274, 1/500); 5 nM E1; 1 μM E2 (HA); 25 nM E3 tetramer; 25 nM Cks1; 2 μM Ub; 100 μM ATP; streptavidin sulfo tag (MSD, R32AD-1, 1 μg/ml). Titration of PYR41 (Calbiochem 662105) from 300 μM to 10 nM (control). Titration of Rottlerin, EGCG, AG538 and K252c from 300 μM to 10 nM.\n(§1) Each of the assays in the p27 ubiquitination cascade (E1, E2 and E3) were tested against the E1 inhibitor PYR-41. No pre-charging of either the E1 or E2 was carried out prior to the introduction of the compound although in the E3 assay, p27 phosphorylation by CDK2/Cyclin E was carried out in the absence of inhibitor.\nIn order to test the feasibility of screening the E3 assay against a range of inhibitors, the assay was tested against a panel of 41 inhibitors (40 known kinase inhibitors and PYR-41) (FIG. 31). […] Using the same assay conditions, the E3 assay was tested against these inhibitors (FIG. 33)."}, "[2]": {"biological_target": "T2, UbCH3 (Homo sapiens, UniProt P49427)", "T2 construct": "HA,6His-UbcH3-(hu,FL) (E2); made in house", "T2 sequence (P49427 whole entry, one chain of several)": "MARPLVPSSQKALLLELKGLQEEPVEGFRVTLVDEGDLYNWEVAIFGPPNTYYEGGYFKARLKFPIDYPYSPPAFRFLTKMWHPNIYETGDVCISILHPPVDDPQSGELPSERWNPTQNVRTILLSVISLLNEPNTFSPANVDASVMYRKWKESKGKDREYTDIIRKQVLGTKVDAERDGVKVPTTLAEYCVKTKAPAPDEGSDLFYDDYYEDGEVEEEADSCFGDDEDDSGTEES", "assay": "UbCH3 (E2) assay, ECL (anti-HA capture)", "type": "biochemical", "conditions": "5 nM E1, 50 nM E2, 2 μM Ub, 100 μM ATP, 60 minute incubation", "description": "(§2) FIG. 30 (b): E1/E2 Assay—ECL Inhibitor study—PYR-41. Used 60 minute incubation; 2 μM Ub; 100 μM ATP. For E1 assay (Anti-His capture) 50 nM E1. For E2 assay (Anti HA-capture) 5 nM E1; 50 nM E2. Used streptavidin sulfo tag (MSD R32AD-1, 1 μg/ml); titration of PYR41 (Calbiochem 662105) from 300 μM to 10 nM.\nas §1"}, "[3]": {"biological_target": "T3, Ube1 (Homo sapiens, UniProt P22314)", "T3 construct": "6His-UBE1-(hu,FL) (E1); made in house", "T3 sequence (P22314 1-1058)": "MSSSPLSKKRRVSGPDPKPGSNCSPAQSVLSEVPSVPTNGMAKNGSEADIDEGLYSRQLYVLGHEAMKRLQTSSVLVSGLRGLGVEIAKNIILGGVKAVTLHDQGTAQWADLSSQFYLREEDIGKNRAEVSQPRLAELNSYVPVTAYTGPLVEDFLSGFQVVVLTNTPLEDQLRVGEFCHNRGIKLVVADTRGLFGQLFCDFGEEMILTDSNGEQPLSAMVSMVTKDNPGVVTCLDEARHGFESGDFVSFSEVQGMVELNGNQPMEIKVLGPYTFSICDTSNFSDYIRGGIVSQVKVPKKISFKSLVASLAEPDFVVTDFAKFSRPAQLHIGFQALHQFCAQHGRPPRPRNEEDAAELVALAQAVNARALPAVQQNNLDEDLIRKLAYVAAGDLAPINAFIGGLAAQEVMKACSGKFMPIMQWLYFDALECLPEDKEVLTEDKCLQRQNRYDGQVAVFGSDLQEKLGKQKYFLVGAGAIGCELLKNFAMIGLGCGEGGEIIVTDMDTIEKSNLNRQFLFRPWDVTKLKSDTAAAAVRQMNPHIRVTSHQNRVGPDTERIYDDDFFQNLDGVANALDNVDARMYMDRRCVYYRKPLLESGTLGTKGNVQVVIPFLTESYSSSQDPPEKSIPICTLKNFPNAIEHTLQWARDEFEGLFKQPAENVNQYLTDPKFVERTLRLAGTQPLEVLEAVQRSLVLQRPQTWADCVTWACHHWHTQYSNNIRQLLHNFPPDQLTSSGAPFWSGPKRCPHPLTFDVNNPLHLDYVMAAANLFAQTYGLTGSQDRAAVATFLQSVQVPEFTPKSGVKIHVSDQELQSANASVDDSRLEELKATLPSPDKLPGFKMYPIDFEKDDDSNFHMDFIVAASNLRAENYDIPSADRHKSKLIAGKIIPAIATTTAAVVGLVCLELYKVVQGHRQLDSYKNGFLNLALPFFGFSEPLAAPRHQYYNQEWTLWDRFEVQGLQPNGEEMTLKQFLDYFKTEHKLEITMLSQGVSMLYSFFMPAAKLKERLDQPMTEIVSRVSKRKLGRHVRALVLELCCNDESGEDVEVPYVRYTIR", "assay": "E1 assay, HTRF", "type": "biochemical", "conditions": "1 μM E1, 2 μM Ub, Anti-6His-K, 30 minutes pre-incubation", "description": "(§3) FIG. 18: Ube1 Inhibitor study PYR41 in E1 and E1+E2 assay—HTRF. Inhibitor study: 30 minutes pre-incubation with PYR-41. Assays were immediately diluted followed by addition of 2 mM ATP.\n(§4) Using conditions identified previously, an IC50 determination for Pyr-41 using the E1 and E1/E2 assays was performed. […] This may be a reflection of the higher enzyme concentrations used in the HTRF assay step (FIG. 18)."}, "[4]": {"biological_target": "T4, E1 (Homo sapiens, UniProt P22314)", "T4 construct": "literature BiogenNova / Calbiochem (quoted value)", "T4 sequence (P22314 1-1058)": "T3 sequence (P22314 1-1058)", "conditions": "cited from earlier work"}, "[5]": {"biological_target": "T5, Ube1/UbCH3 (Homo sapiens, UniProt P22314)", "T5 construct": "6His-UBE1-(hu,FL) (E1); made in house", "T5 sequence (P22314 1-1058)": "T3 sequence (P22314 1-1058)", "assay": "E1+E2 (Ube1+UbCH3) assay, HTRF", "type": "biochemical", "conditions": "100 nM E1, 1 μM E2, 400 nM Ub", "description": "as §3\nBiogenNova quote IC50 value as ˜5 μM.\nas §4"}, "[6]": {"biological_target": "T3, Ube1", "assay": "Ube1 (E1) assay, ECL", "type": "biochemical", "conditions": "50 nM E1, 2 μM Ub", "description": "FIG. 11: Ube1 inhibitor study PYR41— ECL. Inhibitor study. Titration of PYR41 (Calbiochem 662105) from 300 μM to 10 nM. Used anti-His capture for E1 (Millipore, 16-255, 1/1000 dil); 50 nM E1; 2 μM Ub; 500 μM ATP; 30-minute pre-incubation with cpd.; 30 minute reaction time.\nas §2\nFor the IC50 determination of Pyr-41, the data shown is that from a 30 minute pre-incubation and a 30 minute assay. The assay was performed in a separate plate and then transferred. For information purposes, another set of assays were performed within the capture/detect plate and stopped immediately by washing off the assay solution, or washed after 60 min. It was interesting to note that even with the wash at time 0 an IC50 for the compound that was in line with the data shown could still be determined.\nas §1"}, "[7]": {"conditions": "ECL E3 assay, kinase inhibitor panel screen"}}, "note": "Where “and” joins values, the source holds several entries; their conditions need not be identical. Identical values can stand only once. Entries after “also recorded” stand apart in the source; their conditions may differ.", "data": [{"smiles": "N#C/C(=C\\c1ccc(O)c(O)c1)C(=O)c1ccc(O)c(O)c1", "note": "[AG538]", "values": [{"measurement": "inhibition in kinase inhibitor panel (in words)", "setting": "[1]; [7]", "value": "show up as inhibitors"}]}, {"smiles": "Nc1ncnc2c1ncn2[C@@H]1O[C@H](COP(=O)(O)OP(=O)(O)OP(=O)(O)O)[C@@H](O)[C@H]1O", "note": "[ATP, Adenosine-5′-Triphosphate]", "values": [{"measurement": "Km", "setting": "[1]; ECL E3 assay, ATP titration 1000 to 7 μM, 2 μM Ub, read-out: apparent Km for ATP", "value": "~4", "unit": "µM"}]}, {"smiles": "O=C(O[C@@H]1Cc2c(O)cc(O)cc2O[C@@H]1c1cc(O)c(O)c(O)c1)c1cc(O)c(O)c(O)c1", "note": "[EGCG]", "values": [{"measurement": "inhibition in kinase inhibitor panel (in words)", "setting": "[1]; [7]", "value": "show up as inhibitors; also recorded: moderate amounts of inhibition"}, {"measurement": "follow up IC50 (in words)", "setting": "[1]; ECL E3 assay", "value": "in the μM range"}]}, {"smiles": "O=C1NCc2c1c1c3ccccc3[nH]c1c1[nH]c3ccccc3c21", "note": "[K252c]", "values": [{"measurement": "inhibition in kinase inhibitor panel (in words)", "setting": "[1]; [7]", "value": "show up as inhibitors; also recorded: moderate amounts of inhibition"}, {"measurement": "follow up IC50 (in words)", "setting": "[1]; ECL E3 assay", "value": "false positive result"}]}, {"smiles": "CCOC(=O)c1ccc(N2NC(=O)/C(=C/c3ccc([N+](=O)[O-])o3)C2=O)cc1", "note": "[PYR-41]", "values": [{"measurement": "IC50", "setting": "[2]", "value": 3.2, "unit": "µM"}, {"measurement": "inhibition in panel of 41 inhibitors", "setting": "[1]; [7]", "value": "> 80", "unit": "%"}, {"measurement": "IC50", "setting": "[1]; ECL, 25 nM c-Myc p27, 5 nM E1, 1 μM E2, 25 nM E3 tetramer, 25 nM Cks1, 2 μM Ub, 100 μM ATP, 60 minute incubation", "value": "55 µM and 84 µM"}, {"measurement": "IC50", "setting": "[3]", "value": 43, "unit": "µM"}, {"measurement": "reported values for the inhibitor (in words)", "setting": "[4]; literature", "value": "low micromolar range"}, {"measurement": "IC50", "setting": "[4]; quoted by BiogenNova / Calbiochem, vs. E1", "value": "~5", "unit": "µM"}, {"measurement": "IC50", "setting": "[5]; Anti-6His-K detection", "value": 16, "unit": "µM"}, {"measurement": "IC50", "setting": "[5]; Anti-FLAG-K detection", "value": 20, "unit": "µM"}, {"measurement": "IC50", "setting": "[6]; 500 μM ATP, 30 minute pre-incubation with cpd, 30 minute reaction time", "value": 1.3, "unit": "µM"}, {"measurement": "IC50", "setting": "[6]; anti-His capture, 100 μM ATP, 60 minute incubation", "value": 7.8, "unit": "µM"}]}, {"smiles": "CC(=O)c1c(O)c(C)c(O)c(Cc2c(O)c3c(c(C(=O)/C=C/c4ccccc4)c2O)OC(C)(C)C=C3)c1O", "note": "[Rottlerin]", "values": [{"measurement": "inhibition in kinase inhibitor panel (in words)", "setting": "[1]; [7]", "value": "show up as inhibitors; also recorded: moderate amounts of inhibition"}, {"measurement": "follow up IC50 (in words)", "setting": "[1]; ECL E3 assay", "value": "in the μM range"}]}]}
